Measurements taken from patent US10681909B2, “Herbicidal triazoles” (FMC Corporation, priority 2014, dated 2020).

What was measured:
barnyardgrass [1] = test: Test A preemergence; assay type: in vivo, Echinochloa crus-galli; settings: 0 to 100 scale (0 no effect, 100 complete control)
From the text: (§1) Seeds of plant species selected from barnyardgrass (Echinochloa crus-galli), crabgrass, large (large crabgrass, Digitaria sanguinalis), kochia (Kochia scoparia), ragweed (common ragweed, Ambrosia elatior), foxtail, giant (giant foxtail, Setaria faberii), morningglory (Ipomoea spp.), pigweed (Amaranthus retroflexus), velvetleaf (Abutilon theophrasti), ryegrass, Italian (Italian ryegrass, Lolium multiflorum), wheat (Triticum aestivum), and corn (Zea mays) were planted into a blend of loam soil and sand and treated preemergence with a directed soil spray using test chemicals formulated in a non-phytotoxic solvent mixture which included a surfactant. At the same time, plants selected from these crop and weed species and also blackgrass (Alopecurus myosuroides), and galium (catchweed bedstraw, Galium aparine), were planted in pots containing the same blend of loam soil and sand and treated with postemergence applications of test chemicals formulated in the same manner. Plants ranged in height from 2 to 10 cm and were in the one- to two-leaf stage for the postemergence treatment. […] A dash (-) response means no test result.

ryegrass, Italian [2] = test: Test A preemergence; assay type: in vivo, Lolium multiflorum; settings: 0 to 100 scale (0 no effect, 100 complete control)
From the text: (§2) Seeds of plant species selected from barnyardgrass (Echinochloa crus-galli), crabgrass, large (large crabgrass, Digitaria sanguinalis), kochia (Kochia scoparia), ragweed (common ragweed, Ambrosia elatior), foxtail, giant (giant foxtail, Setaria faberii), morningglory (Ipomoea spp.), pigweed (Amaranthus retroflexus), velvetleaf (Abutilon theophrasti), ryegrass, Italian (Italian ryegrass, Lolium multiflorum), wheat (Triticum aestivum), and corn (Zea mays) were planted into a blend of loam soil and sand and treated preemergence with a directed soil spray using test chemicals formulated in a non-phytotoxic solvent mixture which included a surfactant.
(§3) At the same time, plants selected from these crop and weed species and also blackgrass (Alopecurus myosuroides), and galium (catchweed bedstraw, Galium aparine), were planted in pots containing the same blend of loam soil and sand and treated with postemergence applications of test chemicals formulated in the same manner. Plants ranged in height from 2 to 10 cm and were in the one- to two-leaf stage for the postemergence treatment. Treated plants and untreated controls were maintained in a greenhouse for approximately 10 d, after which time all treated plants were compared to untreated controls and visually evaluated for injury. Plant response ratings, summarized in Table A, are based on a 0 to 100 scale where 0 is no effect and 100 is complete control. A dash (-) response means no test result.

kochia [3] = test: Test A preemergence; assay type: in vivo, Kochia scoparia; settings: 0 to 100 scale (0 no effect, 100 complete control)
From the text: as §2, §3

barnyardgrass [4] = test: Test A postemergence; assay type: in vivo, Echinochloa crus-galli; settings: 0 to 100 scale (0 no effect, 100 complete control), approx. 10 d
From the text: as §1

wheat = test: Test A postemergence; assay type: in vivo, Triticum aestivum; settings: 0 to 100 scale (0 no effect, 100 complete control), approx. 10 d
From the text: as §1

corn = test: Test A postemergence; assay type: in vivo, Zea mays; settings: 0 to 100 scale (0 no effect, 100 complete control), approx. 10 d
From the text: as §1

foxtail, giant [5] = test: Test A preemergence; assay type: in vivo, Setaria faberii; settings: 0 to 100 scale (0 no effect, 100 complete control)
From the text: as §1

ragweed [6] = test: Test A preemergence; assay type: in vivo, Ambrosia elatior; settings: 0 to 100 scale (0 no effect, 100 complete control)
From the text: as §2, §3

kochia [7] = test: Test A postemergence; assay type: in vivo, Kochia scoparia; settings: 0 to 100 scale (0 no effect, 100 complete control), approx. 10 d
From the text: as §2, §3

ragweed [8] = test: Test A postemergence; assay type: in vivo, Ambrosia elatior; settings: 0 to 100 scale (0 no effect, 100 complete control), approx. 10 d
From the text: as §2, §3

foxtail, giant [9] = test: Test A postemergence; assay type: in vivo, Setaria faberii; settings: 0 to 100 scale (0 no effect, 100 complete control), approx. 10 d
From the text: as §1

ryegrass, Italian [10] = test: Test A postemergence; assay type: in vivo, Lolium multiflorum; settings: 0 to 100 scale (0 no effect, 100 complete control), approx. 10 d
From the text: as §2, §3

pigweed [11] = test: Test A postemergence; assay type: in vivo, Amaranthus retroflexus; settings: 0 to 100 scale (0 no effect, 100 complete control), approx. 10 d
From the text: as §1

pigweed [12] = test: Test A preemergence; assay type: in vivo, Amaranthus retroflexus; settings: 0 to 100 scale (0 no effect, 100 complete control)
From the text: as §1

blackgrass = test: Test A postemergence; assay type: in vivo, Alopecurus myosuroides; settings: 0 to 100 scale (0 no effect, 100 complete control), approx. 10 d
From the text: as §2, §3

galium = test: Test A postemergence; assay type: in vivo, Galium aparine; settings: 0 to 100 scale (0 no effect, 100 complete control), approx. 10 d
From the text: as §2, §3

SMILES | Plant response rating, Barnyardgrass (barnyardgrass [1]; 31 g ai/ha) | Plant response rating, Barnyardgrass (barnyardgrass [1]; 125 g ai/ha) | Plant response rating, Ryegrass, Italian (ryegrass, Italian [2]; 31 g ai/ha) | Plant response rating, Ryegrass, Italian (ryegrass, Italian [2]; 125 g ai/ha) | Plant response rating, Kochia (kochia [3]; 31 g ai/ha) | Plant response rating, Kochia (kochia [3]; 125 g ai/ha) | Plant response rating, Barnyardgrass (barnyardgrass [4]; 31 g ai/ha) | Plant response rating, Barnyardgrass (barnyardgrass [4]; 125 g ai/ha) | Plant response rating, Wheat (wheat; 31 g ai/ha) | Plant response rating, Wheat (wheat; 125 g ai/ha) | Plant response rating, Corn (corn; 31 g ai/ha) | Plant response rating, Corn (corn; 125 g ai/ha) | Plant response rating, Foxtail, Giant (foxtail, giant [5]; 31 g ai/ha) | Plant response rating, Foxtail, Giant (foxtail, giant [5]; 125 g ai/ha) | Plant response rating, Ragweed (ragweed [6]; 31 g ai/ha) | Plant response rating, Ragweed (ragweed [6]; 125 g ai/ha) | Plant response rating, Kochia (kochia [7]; 31 g ai/ha) | Plant response rating, Kochia (kochia [7]; 125 g ai/ha) | Plant response rating, Ragweed (ragweed [8]; 31 g ai/ha) | Plant response rating, Ragweed (ragweed [8]; 125 g ai/ha) | further results
FC(F)(F)COc1nc(-c2ccc(C(F)(F)F)cc2)nn1Cc1ccnc(C(F)(F)F)c1 [Compound 34] | 30 | 100 | 0 | 90 | 20 | 90 | 20 | 70 | 30 | 50 | 20 | 20 | 100 | 100 | 0 | 30 | 70 | 90 | 20 | 50 | Plant response rating, Foxtail, Giant (foxtail, giant [9]; 31 g ai/ha): 20; Plant response rating, Foxtail, Giant (foxtail, giant [9]; 125 g ai/ha): 90; Plant response rating, Ryegrass, Italian (ryegrass, Italian [10]; 31 g ai/ha): 0; Plant response rating, Ryegrass, Italian (ryegrass, Italian [10]; 125 g ai/ha): 20; Plant response rating, Pigweed (pigweed [11]; 31 g ai/ha): 100; Plant response rating, Pigweed (pigweed [11]; 125 g ai/ha): 100; Plant response rating, Pigweed (pigweed [12]; 31 g ai/ha): 100; Plant response rating, Pigweed (pigweed [12]; 125 g ai/ha): 100; Plant response rating, Blackgrass (blackgrass; 31 g ai/ha): 20; Plant response rating, Blackgrass (blackgrass; 125 g ai/ha): 50; Plant response rating, Galium (galium; 31 g ai/ha): 30; Plant response rating, Galium (galium; 125 g ai/ha): 90
Cc1nc(-c2ccc(Br)cc2)nn1Cc1ccnc(C(F)(F)F)c1 [Compound 36] | 0 | 60 | 0 | 10 | 60 | 90 | 0 | 20 | 0 | 10 | 20 | 30 | 20 | 90 | 0 | 20 | 70 | 90 | 0 | 30 | Plant response rating, Foxtail, Giant (foxtail, giant [9]; 31 g ai/ha): 20; Plant response rating, Foxtail, Giant (foxtail, giant [9]; 125 g ai/ha): 70; Plant response rating, Ryegrass, Italian (ryegrass, Italian [10]; 31 g ai/ha): 0; Plant response rating, Ryegrass, Italian (ryegrass, Italian [10]; 125 g ai/ha): 0; Plant response rating, Pigweed (pigweed [11]; 31 g ai/ha): 90; Plant response rating, Pigweed (pigweed [11]; 125 g ai/ha): 100; Plant response rating, Pigweed (pigweed [12]; 31 g ai/ha): 90; Plant response rating, Pigweed (pigweed [12]; 125 g ai/ha): 90; Plant response rating, Blackgrass (blackgrass; 31 g ai/ha): 10; Plant response rating, Blackgrass (blackgrass; 125 g ai/ha): 30; Plant response rating, Galium (galium; 31 g ai/ha): 50; Plant response rating, Galium (galium; 125 g ai/ha): 90
